One assay concerns the target T1, EGFR tyrosine kinase (Homo sapiens, UniProt P00533).
T1 construct: Recombinant intracellular fragments of EGFR, erbB2 and erbB4; made in house; host or cells: baculovirus/Sf21 insect cells (cleared lysate)
Description: Protein tyrosine kinase phosphorylation assay, Test (a), EGFR. As to conditions: recombinant intracellular fragment, ATP at Km concentration; read-out: IC50 (μM) Test (a): Inhibition of EGFR tyrosine kinase protein phosphorylation. Type of assay: biochemical. As for the experimental part:
(§1) This test measures the ability of a test compound to inhibit the phosphorylation of a tyrosine containing polypeptide substrate by EGFR, erbB2 and erbB4 tyrosine kinase enzyme.
(§2) Recombinant intracellular fragments of EGFR, erbB2 and erbB4 (accession numbers X00588, X03363 and L07868 respectively) were cloned and expressed in the baculovirus/Sf21 system. […]
(§3) Constitutive kinase activity of these recombinant proteins was determined by their ability to phosphorylate a synthetic peptide (made up of a random co-polymer of Glutamic Acid, Alanine and Tyrosine in the ratio of 6:3:1). […]
(§4) The immobilised phospho-peptide product of the reaction was detected by immunological methods. […] After further washing, HRP activity in each well of the plate was measured colorimetrically using 22′-Azino-di-[3-ethylbenzthiazoline sulfonate (6)] diammonium salt crystals (ABTS™ from Roche) as a substrate.
(§5) Kinase inhibition for a given compound was expressed as an IC50 value. […] The range of phosphorylation was calculated from the positive (vehicle plus ATP) and negative (vehicle minus ATP) control values.

The next assay concerns the target T2, erbB2 tyrosine kinase (Homo sapiens, UniProt P04626).
T2 construct: Recombinant intracellular fragments of EGFR, erbB2 and erbB4; made in house; host or cells: baculovirus/Sf21 insect cells (cleared lysate)
In words: Protein tyrosine kinase phosphorylation assay, Test (a), erbB2. Type of assay: biochemical. As to conditions: recombinant intracellular fragment, ATP at Km concentration; read-out: IC50 (μM) Test (a): Inhibition of erbB2 tyrosine kinase protein phosphorylation. As for the experimental part: as §1, §2, §3, §4, §5

Another assay addresses T3, erbB2 (Homo sapiens, UniProt P04626).
T3 construct: to give a cell line that overexpresses full length wild type erbB2 protein; expressed in transfected cells; host or cells: MCF7 (breast carcinoma) derived 'Clone 24' cells
In words: Clone 24 phospho-erbB2 cell assay, Test (d). Type of assay: cell-based. As to conditions: MCF7 derived cell line (Clone 24) overexpressing erbB2, 4 hours; read-out: IC50 (μM) Test (d): Inhibition of phosphorylation of erbB2. As for the experimental part: The cells were resuspended in Growth Medium.
Plates were returned to the incubator for 4 hours and then 20 μl of 20% formaldehyde solution in PBS was added to each well and the plate was left at room temperature for 30 minutes. This fixative solution was removed with a multichannel pipette, 100 μl of PBS was added to each well and then removed with a multichannel pipette and then 50 μl PBS was added to each well. Plates were then sealed and stored for up to 2 weeks at 4° C.
Immunostaining was performed at room temperature. […] Then this primary antibody solution was removed from the wells using a plate washer followed by two 200 μl PBS/Tween 20 washes using a plate washer. […] From now onwards, wherever possible, plates were protected from light exposure, at this stage by sealing with black backing tape.
The Fluorescence signal is each well was measured using an Acumen Explorer Instrument (Acumen Bioscience Ltd.), a plate reader that can be used to rapidly quantitate features of images generated by laser-scanning. […] Fluorescence dose response data obtained with each compound was exported into a suitable software package (such as Origin) to perform curve fitting analysis. Inhibition of erbB2 phosphorylation was expressed as an IC50 value.

Results on one compound are retold here after patent publication US7947676B2, “Pyrazolo[3,4-d]pyrimidine compounds as antitumor agents” (AstraZeneca AB, priority 2004, dated 2011).

T2 sequence (P04626 676-1255 limits assumed): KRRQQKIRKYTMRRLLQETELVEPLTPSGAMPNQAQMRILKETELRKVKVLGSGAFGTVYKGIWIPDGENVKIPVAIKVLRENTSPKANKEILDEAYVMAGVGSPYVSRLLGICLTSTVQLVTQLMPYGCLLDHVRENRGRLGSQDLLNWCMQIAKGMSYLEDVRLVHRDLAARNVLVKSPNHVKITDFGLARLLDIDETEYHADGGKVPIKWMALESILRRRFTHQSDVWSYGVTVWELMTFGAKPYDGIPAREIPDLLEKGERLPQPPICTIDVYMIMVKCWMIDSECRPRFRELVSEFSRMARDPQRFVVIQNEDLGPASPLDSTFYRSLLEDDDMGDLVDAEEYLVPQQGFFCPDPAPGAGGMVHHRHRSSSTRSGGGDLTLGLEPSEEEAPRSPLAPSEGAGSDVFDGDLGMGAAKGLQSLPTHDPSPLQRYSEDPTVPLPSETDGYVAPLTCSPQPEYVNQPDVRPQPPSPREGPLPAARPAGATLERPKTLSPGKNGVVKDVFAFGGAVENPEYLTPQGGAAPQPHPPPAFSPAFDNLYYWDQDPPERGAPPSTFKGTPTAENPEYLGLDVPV
T3 sequence (P04626 23-1255): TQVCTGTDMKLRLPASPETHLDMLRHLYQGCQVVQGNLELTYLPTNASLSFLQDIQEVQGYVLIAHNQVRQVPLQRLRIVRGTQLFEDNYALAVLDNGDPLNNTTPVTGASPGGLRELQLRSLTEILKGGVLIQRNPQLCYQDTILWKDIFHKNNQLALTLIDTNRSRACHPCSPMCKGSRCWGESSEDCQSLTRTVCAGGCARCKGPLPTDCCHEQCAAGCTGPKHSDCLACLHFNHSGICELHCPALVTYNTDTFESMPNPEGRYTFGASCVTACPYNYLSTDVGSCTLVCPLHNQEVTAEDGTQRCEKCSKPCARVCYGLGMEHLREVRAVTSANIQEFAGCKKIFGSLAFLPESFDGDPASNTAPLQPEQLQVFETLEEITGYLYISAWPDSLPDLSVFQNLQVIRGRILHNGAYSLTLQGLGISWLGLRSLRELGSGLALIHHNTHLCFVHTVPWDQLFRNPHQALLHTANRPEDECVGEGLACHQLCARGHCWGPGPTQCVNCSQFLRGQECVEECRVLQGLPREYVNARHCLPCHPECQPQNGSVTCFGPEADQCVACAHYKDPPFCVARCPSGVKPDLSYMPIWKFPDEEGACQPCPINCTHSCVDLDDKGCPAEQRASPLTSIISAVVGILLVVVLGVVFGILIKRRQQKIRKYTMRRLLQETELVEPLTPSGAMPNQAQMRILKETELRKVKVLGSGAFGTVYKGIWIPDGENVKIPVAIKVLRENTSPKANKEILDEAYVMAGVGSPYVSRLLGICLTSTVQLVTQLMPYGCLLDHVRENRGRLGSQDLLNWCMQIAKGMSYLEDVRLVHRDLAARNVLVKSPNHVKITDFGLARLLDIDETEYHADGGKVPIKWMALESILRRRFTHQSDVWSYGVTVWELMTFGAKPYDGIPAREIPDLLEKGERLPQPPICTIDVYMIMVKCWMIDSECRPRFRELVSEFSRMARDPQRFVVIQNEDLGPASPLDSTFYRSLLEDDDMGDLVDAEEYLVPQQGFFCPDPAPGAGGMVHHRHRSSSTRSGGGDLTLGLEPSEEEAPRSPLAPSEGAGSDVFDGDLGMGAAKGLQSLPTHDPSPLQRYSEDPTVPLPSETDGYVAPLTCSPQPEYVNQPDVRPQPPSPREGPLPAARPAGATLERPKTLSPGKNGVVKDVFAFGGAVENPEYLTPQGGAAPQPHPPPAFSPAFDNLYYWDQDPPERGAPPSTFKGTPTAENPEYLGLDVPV
T1 sequence (P00533 669-1210 limits assumed): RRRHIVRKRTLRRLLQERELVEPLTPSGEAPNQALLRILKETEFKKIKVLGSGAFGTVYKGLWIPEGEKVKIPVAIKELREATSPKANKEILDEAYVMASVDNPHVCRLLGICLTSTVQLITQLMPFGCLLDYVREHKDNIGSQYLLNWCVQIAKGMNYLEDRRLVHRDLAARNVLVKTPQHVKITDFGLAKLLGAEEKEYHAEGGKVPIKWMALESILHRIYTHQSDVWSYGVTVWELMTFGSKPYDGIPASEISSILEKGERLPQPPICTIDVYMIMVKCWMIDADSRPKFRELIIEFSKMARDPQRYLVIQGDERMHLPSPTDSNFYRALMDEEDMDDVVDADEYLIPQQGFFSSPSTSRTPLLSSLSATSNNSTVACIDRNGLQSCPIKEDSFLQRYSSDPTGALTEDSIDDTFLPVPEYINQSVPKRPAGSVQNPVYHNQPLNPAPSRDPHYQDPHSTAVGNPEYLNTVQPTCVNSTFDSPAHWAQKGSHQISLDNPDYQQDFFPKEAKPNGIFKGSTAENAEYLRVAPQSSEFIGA

As for `Cc1ccc(Oc2ccc(Nc3ncnc4[nH]nc(OCCN5CCOCC5)c34)cc2C)cn1` [Example 42, N-{3-methyl-4-[(6-methylpyridin-3-yl)oxy]phenyl}-3-(2-morpholin-4-ylethoxy)-1H-pyrazolo[3,4-d]pyrimidin-4-amine], the IC50 was 0.71 µM at EGFR tyrosine kinase, 0.027 µM on erbB2 tyrosine kinase and 0.083 µM at erbB2.
